{"source": "patent US11648258B2", "about": "“Method and compounds for inhibiting the MCM complex and their application in cancer treatment” (priority 2012, dated 2023)", "key": {"[1]": {"test_system": "L-02 cells", "assay": "Flow cytometry (cell cycle) in normal L-02 cells", "assay_type": "cell-based, human", "conditions": "24 hrs", "protocol": "Both floating and attached cells were collected and washed once with PBS. Cells were fixed in 70% ethanol for 1 hr to overnight at −20° C., washed thoroughly with PBS, and then stained in 50 μg/ml RNase A, 0.1% Triton X-100, 0.1 mM EDTA (pH 7.4), and 50 μg/ml propidium iodide for 30 min at 4° C. Samples were analyzed with the FACSort instrument (Becton Dickinson).\nIn FIG. 8A, flow cytometry was performed to analyze the DNA contents in HepG2 and L-02 cells treated with 17beta-Deacetyltanghinin at various concentrations for 24 hrs. In FIG. 8B, Hela cells were treated with 17beta-Deacetyltanghinin for 24 hrs and labeled with Annexin V-Cy3 (Arm. Cy3) for 20 min. Mitoxantrone (MTX), a clinical anticancer drug that can induce apoptosis in cancer cells, was used as a positive control."}, "[2]": {"test_system": "L-02 (normal liver) cells and HepG2 (liver cancer) cells", "assay": "Growth resumption after drug removal, WST-1 assay", "assay_type": "cell-based, human", "conditions": "one day treatment, then three days in fresh medium", "protocol": "Data in FIGS. 2 and 8A indicate that the anti-proliferation compounds of this invention can specifically kill cancer cells with little cytotoxicity towards normal cells. To test if normal and/or cancer cells could resume cell growth after removal of 17beta-Deacetyltanghinin, L-02 (normal liver) cells and HepG2 (liver cancer) cells were incubated with 17beta-Deacetyltanghinin or DMSO for one day, 17beta-Deacetyltanghinin or DMSO was then removed, and the cells were further incubated with fresh growth medium for three days. Viable cell numbers were monitored daily by WST-1 assay. In FIG. 9, L+DAT refers to L-02 cells treated with 17beta-Deacetyltanghinin; L+D represents L-02 cells treated with DMSO; H+DAT refers to HepG2 cells treated with 17beta-Deacetyltanghinin; and H+D represents HepG2 cells treated with DMSO before being released into fresh medium."}, "[3]": {"test_system": "HeLa cells xenograft tumors", "assay": "In vivo anticancer activity, nude mice xenograft model", "conditions": "for suppression of tumor growth: days 1-3 and 6-10, HeLa xenograft", "protocol": "In vivo anticancer activity tests were carried out in the nude mice xenograft model by inoculating nude mice with HeLa cells in both the left and right flanks. After random grouping, nude mice were treated intraperitoneally with 17beta-Deacetyltanghinin or the solvent (30% of propylene glycol in PBS). In the first test, 3 days after tumor inoculation when small tumors started to form, two groups of nude mice were treated on days 1-3 and 6-10 with 3.5 and 7.0 mg-drug/kg-body weight of 17beta-Deacetyltanghinin respectively, and another group of control mice were treated with the same volume of the solvent (FIG. 10A). In FIG. 10A, the tumor volume data represented by the small-size data point symbol linked with thin lines were obtained on the days when both measurement of tumor size and drug injections were performed, and the tumor volume data represented by the large-size data point symbol linked with thick lines were obtained on the days without drug injection. Each tumor size was average of ten tumors in five mice in each group.\nA further set of animal experiments was then conducted with a longer period of time, in which fifteen drug injections at 5.0 mg/kg were performed one week after tumor inoculation when the tumor size reached 0.05-0.1 cm^3. In FIG. 10B, drug injections and tumor size measurements were performed on the days represented by the data points, and the photographs in FIG. 10C were taken on day 20."}, "[4]": {"test_system": "HepG2 cells (hepatocellular carcinoma)", "conditions": "HepG2, 48 hrs"}}, "data": [{"smiles": "COC1C(O)[C@H](O[C@H]2CC[C@]3(C)C4CC[C@]5(C)[C@@H](C6=CC(=O)OC6)CC[C@]5(O)[C@@]45O[C@H]5C[C@@H]3C2)OC(C)[C@@H]1O", "note": "(stereo partly drawn) [17beta-Deacetyltanghinin, 3β-O-(3-O-methyl-6-deoxy-α-L-glucopyranosyl)-7β,8β-epoxy-14β-hydroxy-card-20(22)-enolide]", "values": [{"measurement": "cell cycle effect in normal cells", "setting": "[1]", "result": "mostly arrested in G1 phase"}, {"measurement": "growth resumption after removal of compound", "setting": "[2]", "result": "normal cells, but not cancer cells, resumed growth"}, {"measurement": "suppression of tumor growth", "setting": "[3]; 3.5 mg/kg intraperitoneally", "result": 70, "unit": "%"}, {"measurement": "suppression of tumor growth", "setting": "[3]; 7.0 mg/kg intraperitoneally", "result": 90, "unit": "%"}, {"measurement": "tumors smaller than in solvent-treated control mice", "setting": "[3]; fifteen injections at 5.0 mg/kg, started one week after inoculation", "result": "over 80%"}, {"measurement": "inhibition of proliferation, direct microscopy of cell density and morphology", "setting": "[4]", "result": "efficiently inhibit the proliferation"}]}]}
